Assay results taken from patent US6632822B1, “Compounds and therapeutic methods” (The Australian National University, priority 1999, dated 2003).
Read-outs that look alike come from different tables or passages of the source.

Legend:
HeLa cells = assay: HeLa cell cytotoxicity, MTT assay; type: cell-based; settings: cultured HeLa cells, 4 days continuous incubation, ± s.d., listed as IB (Calothrixin B)
Method: The compounds of Formula IA and IB were also examined for their efficacy in inhibiting the growth of cultured HeLa cells (FIG. 2). The IC50 values are depicted in Table 2.
Exponentially growing HeLa cells were trysinized, centrifuged and resuspended in fresh medium. (RPMI 1640, 20% FCS, 2 mM glutamine). […] Calothrix cell extracts or the purified active compound were prepared in dimethyl sulphoxide, serially diluted in complete medium, then added (100 μL) in quadruplicate to cell suspensions. Cells were incubated continuously with extracts at 37° C. for 4 days. Cytotoxicity was determined using the MTT [3-(4,5dimethylthiazol-2-yl)-2,5-diphenyl-tetrazolium bromide] assay. MTT (50 μL, 2 mg ML^−1) was aliquotted into all wells of the microtitre plate and incubated at 37° C. for 4 h. Plates were inverted to discard medium and formazan crystals were solubilized in 100 μL DMSO with 25 μL glycine buffer (0.1 M glycine in 0.1 M NaCl, pH 10.5). Plates were agitated for 30 s and absorbances determined immediately at […] using a Titertek Multiskan Plus MKII ELISA plate reader.
The results are illustrated in FIG. 2.

[1] = tested on: Plasmodium falciparum chloroquine-resistant strain (FAF6, derived from ITG2 strain); assay: Growth inhibition of chloroquine-resistant malaria parasite (parasite lactate dehydrogenase viability); type: cell-based
Source text: Compounds IA and IB (also referred to herein as calothrixins A and B respectively) were isolated from Calothrix strains (Schlegel et al, J. Appl, Phycol. 10, 471-479 (1998)), extracts of which were screened for activity against HeLa cells and Plasmodium as described in the Examples.
A chloroquine-resistant strain (FAF6, derived from ITG2 strain (Biggs, B. A., Gooze, L., Wycherley, K., Wollish, W., Southwell, B., Leech, J. H., and Brown, G. V (1991). Proc. Natl. Acad. Sci. USA 88, 9171-9174, 1991) of the malaria parasite. Plasmodium falciparum was used. Parasites were cultured in standard media (Trager, W. and Jensen, J. B. (1976). Science 193 673-675) with modifications (Cranmer, S. L., Magowan, C., Lian, J., Coppel, R. L., and Cooke, B. M. (1997). Trans. Roy. Soc. Trop. Med. Hyg. 91, 363-365). At the start of the assay the parasitaemia was 2% and haematocrit was 2%. Parasites were incubated in the presence of inhibitors in 96-well plates for 48 h.
Parasite-derived lactate dehydrogenase activity at the end of the 48 h period was used as a measure of parasite viability in vitro (Makler, M. T., Ries, J. M., Williams, J. A., Bancroft, J. E., Piper, R. C., Gibbins, B. L., and Hinrichs, D. J. (1993). Am. J. Trop. Med. Hyg. 48, 739-741).
The results are illustrated in FIG. 1.

Structure (SMILES) | IC50 (HeLa cells) [µM] | IC50 ([1]; chloroquine-resistant P. falciparum strain FAF6, 48 h incubation, parasite lactate dehydrogenase activity, ± s.d., listed as IB (Calothrixin B), read-out: IC50) [µM] | IC50 ([1]; Plasmodium falciparum, 48 h) [µM]
O=C1c2[nH]c3ccccc3c2C(=O)c2cnc3ccccc3c21 [IB, Calothrixin B] | 0.35 ± 0.082 | 0.083 ± 0.017 | 
CCN(CC)CCCC(C)Nc1ccnc2cc(Cl)ccc12 (stereo not drawn) [Chloroquine, reference compound] |  |  | 0.18 ± 0.044
